Measured values reported in US7737139B2, “Sulfonic acids, their derivatives and pharmaceutical compositions containing them” (Dompe PHA.R.MA S.p.A., priority 2003, dated 2010).
Structures can show the parent of a compound that is named as a salt.

Test system: human PMNs
Assay: IL-8 induced human PMN chemotaxis assay
Type: cell-based
Conditions: compounds marked * tested at c = 10^−7; human PMNs chemotaxis induced by IL-8 (100 ng/mL)

Row | SMILES | inhibition at 0.1 µM
1 | CNS(=O)(=O)C(C)c1ccc(CC(C)C)cc1 (racemic) [Compound 43, (±)-1-(4-isobutylphenyl)ethane-N-methyl sulfonamide] | 36 ± 15%
2 | CS(=O)(=O)Nc1ccc(/C=C/S(N)(=O)=O)cc1 [Compound 17, E-2-[4-(methanesulfonylamino)phenyl] ethenesulfonamide] | 41 ± 17%
3 | CNS(=O)(=O)/C=C/c1ccc(CC(C)C)cc1 [Compound 22, E-2-(4-isobutylphenyl)ethene-N-methyl sulfonamide] | 41 ± 9%

Test system: human PMNs
Assay: IL-8 induced human PMN chemotaxis assay
Type: cell-based
Conditions: c = 10^−8 M; human PMNs chemotaxis induced by IL-8 (100 ng/mL)
Experimental: The compounds of formula (I) were evaluated in vitro for their ability to inhibit chemotaxis of polymorphonucleate leukocytes (hereinafter referred to as PMNs) and monocytes induced by the fractions of IL-8 and GRO-α. For this purpose, in order to isolate the PMNs from heparinized human blood, taken from healthy adult volunteers, mononucleates were removed by means of sedimentation on dextran (according to the procedure disclosed by W. J. Ming et al, J. Immunol., 138, 1469, 1987) and red blood cells by a hypotonic solution. The cell vitality was calculated by exclusion with Trypan blue, whilst the ratio of the circulating polymorphonucleates was estimated on the cytocentrifugate after staining with Diff Quick.
Human recombinant IL-8 (Pepro Tech) was used as stimulating agents in the chemotaxis experiments, giving practically identical results: the lyophilized protein was dissolved in a volume of HBSS containing 0.2% bovin serum albumin (BSA) so thus to obtain a stock solution having a concentration of 10^−5 M to be diluted in HBSS to a concentration of 10^−9 M, for the chemotaxis assays.
During the chemotaxis assay (according to W. Falket et al., J. Immunol. Methods, 33, 239, 1980) PVP-free filters with a porosity of 5 μm and microchambers suitable for replication were used.
The compounds of formula (I) were evaluated at a concentration ranging between 10^−6 and 10^−10 M; for this purpose they were added, at the same concentration, both to the […] of the microchamber. Evaluation of the ability of the compounds of the invention of formula I to inhibit IL-8-induced chemotaxis of human monocytes was carried out according to the method disclosed by Van Damme J. et al. (Eur. J. Immunol., 19, 2367, 1989).
Biological results of some representative compounds in the IL-8 induced PMN chemotaxis test are reported in table II (inhibition data, C=10^−8 M).

Row | SMILES | inhibition at 0.01 µM
4 | CC(=O)NS(=O)(=O)C(C)c1ccc(CC(C)C)cc1 (racemic) [Compound 47, (±)-1-(4-isobutylphenyl)ethane-N-acetyl sulfonamide] | 40 ± 17%
5 | CC(C)Cc1ccc(/C=C/S(N)(=O)=O)cc1 [Compound 14, E-2-(4-isobutylphenyl) ethenesulfonamide] | 41 ± 17%
6 | C/C(=C\S(N)(=O)=O)c1ccc(CC(C)C)cc1 [Compound 50, E-2-(4-isobutylphenyl)-2-methyl-ethenesulfonamide] | 32 ± 1%
7 | CC(=O)c1ccc(CS(N)(=O)=O)n1C [Compound 31, (1-methyl-5-acetylpyrrolyl)-1-methanesulfonamide] | 39 ± 4%
8 | CC(c1cccc(C(=O)c2ccccc2)c1)S(=O)(=O)O (racemic) [Compound 8, sodium salt] | 65 ± 4%
9 | CC(C)Cc1ccc([C@H](C)S(=O)(=O)O)cc1 [Compound 2, (+)-1-(4-isobutylphenyl) ethanesulfonic acid sodium salt] | 35 ± 7%
10 | NS(=O)(=O)/C=C/c1cccc(C(=O)c2ccccc2)c1 [Compound 15, E-2-(3-benzoylphenyl) ethenesulfonamide] | 66 ± 10%
11 | CC(C)Cc1ccc(/C=C/S(=O)(=O)NCCCN(C)C)cc1 [Compound 18, E-2-(4-isobutylphenyl)ethene(N,N-dimethylaminopropyl) sulfonamide] | 40 ± 1%
12 | CN(C)CCCNS(=O)(=O)/C=C/c1ccc(NS(C)(=O)=O)cc1 [Compound 21, E-2-[4-(methanesulfonylamino)phenyl] ethene-(N,N-dimethylaminopropyl) sulfonamide] | 31 ± 6%
13 | CC(C)C(=O)c1ccc(CS(N)(=O)=O)n1C [Compound 30, (1-methyl-5-isobutirrylpyrrolyl)-1-methanesulfonamide] | 50 ± 1%
14 | CN(C)CCCNS(=O)(=O)/C=C/c1ccc(OS(=O)(=O)C(F)(F)F)cc1 [Compound 20, E-2-[4-(trifluoromethanesulfonyloxy)phenyl]ethene-(N,N-dimethylaminopropyl)sulfonamide] | 60 ± 1%
15 | CC(=O)c1ccc(CS(=O)(=O)O)n1C [Compound 7, (1-methyl-5-acetylpyrrolyl)-1-methanesulfonic acid sodium salt] | 35 ± 2%
16 | CC(C)Cc1ccc(/C=C/S(=O)(=O)O)cc1 [Compound 10, E-2-(4-isobutylphenyl)ethenesulfonic acid sodium salt] | 45 ± 4%
17 | CC(c1cccc(C(=O)c2ccccc2)c1)S(=O)(=O)NCCCN(C)C (racemic) [Compound 36, (±)-1-(3-benzoylphenyl)ethane-N-(N,N-dimethylaminopropyl) sulfonamide] | 49 ± 14%
18 | CC(C)Cc1ccc([C@@H](C)S(=O)(=O)O)cc1 [Compound 1, (−)-1-(4-isobutylphenyl) ethanesulfonic acid sodium salt] | 55 ± 7%
